Data taken from patent US11384379B2, “Method for producing a protein and disaccharide using a Talaromyces cellulolyticus” (AJINOMOTO CO., INC., priority 2017, dated 2022).

Columns and labels:
[1] = tested on: T. cellulolyticus strains F09pyr+ and F09Δgh1-2; test: Halo assay for secretory cellulase by various beta-linked glucose oligosaccharides (CMC minimal medium, Congo Red); assay type: cell-based, Talaromyces cellulolyticus; details: 30° C. for 36 hours
Description: The strains F09pyr+ and F09Δgh1-2 were each grown on the minimal medium containing glucose as the carbon source for 3 days. […] After the culture, a Congo Red solution obtained by mixing 50 mM sodium phosphate buffer (pH 7.0) and 2 mg/ml Congo Red (Nacalai Tesque) in a volume ratio of 10:1 was added to the plate so that the Congo Red solution covered the entire plate, and the plate was left to stand for 30 minutes at a room temperature. Then, the Congo Red solution on the plate was removed, and sodium phosphate buffer (50 mM, pH 7.0) was added to the plate so that the sodium phosphate buffer covered the entire plate. The plate was again left to stand for 30 minutes at a room temperature. Then, the sodium phosphate buffer on the plate was removed, the surface of the plate was dried lightly, and observation of halo was carried out.

[2] = tested on: HSA expressing strain derived from the T. cellulolyticus strain F09ΔyscB; details: feeding solution Gentiobiose 80 g/L vs Cellobiose 80 g/L; 45 hours
Description: The HSA expressing strain derived from the T. cellulolyticus strain F09ΔyscB was inoculated into PD medium, and cultured at 30° C. One agar disk excised from around the edge of a formed colony was inoculated into 20 mL of a liquid culture medium containing 20 g/L glucose, 24 g/L KH2PO4, 5 g/L (NH4)2SO4, 2 g/L Urea, 1.2 g/L MgSO4-7H2O, 0.01 g/L ZnSO4-7H2O, 0.01 g/L MnSO4-5H2O, 0.01 g/L CuSO4-5H2O, 1 g/L Corn steep liquor (C4648, SIGMA), and 1 g/L Tween 80, and gyratory culture (220 rpm) was carried out at 30° C. for 5 days as a pre-culture. Then, 15 mL of the pre-culture broth was inoculated into 300 mL of a liquid culture medium containing 15 g/L glucose, 12 g/L KH2PO4, 10 g/L (NH4)2SO4, 1.2 g/L MgSO4-7H2O, 0.01 g/L ZnSO4-7H2O, 0.01 g/L MnSO4-5H2O, 0.01 g/L CuSO4-5H2O, 5 g/L Corn steep liquor, 1 g/L Tween 80, and 0.5 mL/L DISFOAM GD (NOF CORPORATION) in a jar fermenter, and fed-batch culture was carried out for 45 hours at a culture temperature of 30° C. and an aeration volume of 1/2 vvm, while controlling the dissolved oxygen concentration to be 5% or higher of the saturated oxygen concentration by stirring and controlling the pH to be 5 with using ammonia gas. […]
HSA was quantified by ELISA using Albumin ELISA Quantitation Kit, Human (Bethyl Laboratories, inc.).

[3] = tested on: T. cellulolyticus strains F09pyrF+, F09Δgh1-2, F09Δbgl3A, and F09Δgh1-2Δbgl3A; test: Plate halo assay of double deficient strain of GH1-2 and BGL3A with or without gentiobiose; assay type: cell-based, Talaromyces cellulolyticus; details: 1 mM gentiobiose in combination with double disruption of the gh1-2 gene and the bgl3A gene; 5 days
Description: (§1) The strains F09pyrF+ and F09Δgh1-2 constructed in Example (1-1), the strain F09Δbgl3A constructed in Example (5-1), and the strain F09Δgh1-2Δbgl3A constructed in Example (7-1) were each grown on the minimal medium containing CMC as the carbon source and on the minimal medium containing CMC as the carbon source and 1 mM gentiobiosefor 5 days according to the procedure described in Example (1-4). After the culture, a Congo Red solution obtained by mixing 50 mM sodium phosphate buffer (pH 7.0) and 2 mg/ml Congo Red (Nacalai Tesque) in a volume ratio of 10:1 was added to the plate so that the Congo Red solution covered the whole of the plate, and the plate was left to stand for 30 minutes at a room temperature. Then, the Congo Red solution on the plate was removed, and sodium phosphate buffer (50 mM, pH 7.0) was added to the plate so that the sodium phosphate buffer covered the whole of the plate. The plate was again left to stand for 30 minutes at a room temperature. Then, the sodium phosphate buffer on the plate was removed, the surface of the plate was dried lightly, and the diameter and width of the visualized halo were measured.

[4] = tested on: T. cellulolyticus strain F09ΔcreA; test: Cellulase production fed-batch culture using gentiobiose, filter paper degradation activity; assay type: cell-based, Talaromyces cellulolyticus; details: carbon source other than glucose in the feed solution, compared with cellobiose; 72 hours
Description: The T. cellulolyticus strains F09ΔcreA and F09Δgh1-2ΔcreA were each inoculated into PD medium, and cultured at 30° C. One agar disk excised from around the edge of a formed colony was inoculated into 20 mL of a liquid culture medium containing 20 g/L glucose, 24 g/L KH2PO4, 5 g/L (NH4)2SO4, 2 g/L Urea, 1.2 g/L MgSO4-7H2O, 0.01 g/L ZnSO4-7H2O, 0.01 g/L MnSO4-5H2O, 0.01 g/L CuSO4-5H2O, 1 g/L Corn steep liquor (C4648, SIGMA), and 1 g/L Tween 80, and gyratory culture (220 rpm) was carried out at 30° C. for 5 days as a pre-culture. […]
The filter paper degradation activity (FPU/ml) of the obtained enzyme solutions was measured according to the following procedure, and the yield of the activity per carbon source was calculated on the basis of the consumption amount of sugar during the cultures by which the respective enzyme solutions were obtained.
To a 100-μl aliquot of a citrate buffer (50 mM, pH 5.0) containing a filter paper (Whatman No. 1, GE Healthcare) cut to 6 mm×10 mm, 50 μl of an appropriately diluted sample were added, and a reaction was carried out at 50° C. for 1 hour. […] Then, the absorbance at 540 nm of the supernatant was measured, and the value of the blank was subtracted therefrom, to calculate an increase in absorbance. […]

[5] = tested on: T. cellulolyticus strains Y-94, W363Frep, W449Frep, and C267Prep; test: Halo assay of strains Y-94, W363Frep, W449Frep, C267Prep with or without gentiobiose; assay type: cell-based, Talaromyces cellulolyticus; details: 1 mM gentiobiose in combination with W363F, W449F or C267P mutation in the gh1-2 gene; 5 days
Description: as §1, with “Y-94, W363Frep, W449Frep,” for “F09pyrF+”, “C267Prep” for “F09Δgh1-2 constructed in Example (1-1), the strain F09Δbgl3A constructed in Example (5-1), and the strain F09Δgh1-2Δbgl3A constructed in Example (7-1)”

[6] = Generation of gentiobiose from cellobiose by culture supernatant containing BGL3A; assay type: biochemical; details: enzyme solution, 50° C. for 24 hours
Description: (§2) The strains F09Δbgl3A and F09pyr+ were each inoculated into a 1/2 PDA plate, and cultured at 30° C. for 3 days. […] Sampling was appropriately carried out, cells were removed using a 0.22 μm syringe filter, and the obtained culture supernatant was used as an enzyme solution. Thereby, an enzyme solution derived from the strain F09Δbgl3A not containing BGL3A (hereinafter, also referred to as “-BGL3A”) and an enzyme solution derived from the strain F09pyr+ containing BGL3A (hereinafter, also referred to as “+BGL3A”) were prepared.
The two enzyme solutions obtained in Example (5-2) were used to degrade cellobiose, which is a decomposition product of a cellulosic substrate, under conditions of containing a certain concentration of glucose, and the product was analyzed. The reaction was carried out by placing 10 g of the reaction solution (Table 6) in a 50-ml tube and shaking the tube at 90 rpm at 50° C. for 24 hours.

[7] = Generation of gentiobiose from cellulosic substrate/glucose by culture supernatant containing BGL3A; assay type: biochemical; details: enzyme solution, no cellulosic substrate added, glucose 0-14.4 wt %, 50° C. for 24 hours
Description: as §2
The reaction was carried out by placing 10 g of the reaction solution (Table 5) in a 50-ml tube and shaking the tube at 90 rpm at 50° C. for 24 hours.

[8] = Reaction of GH1-2s with cellobiose, products by TLC and ion exchange chromatography; assay type: biochemical; details: 30 μg/mL enzyme, 2% cellobiose aqueous solution, 40° C. for 1 to 60 minutes
Description: The purified GH1-2 was added to a 2% cellobiose aqueous solution at a concentration of 30 μg/mL, and a reaction solution after reaction at 40° C. for 1 to 60 minutes was used as a sample solution. The sample solution in 3 μL portions was spotted and developed on a thin layer chromatography plate (Merck) having a silica layer having a thickness of 200 μm, a size of 20×20 cm, and an average pore diameter of 60 angstroms. The composition of the developing solvent was chloroform:methanol:pure water=30:20:5 by volume ratio. An aniline phthalate method for detecting a reducing group was used for color development detection. […]
(§3) The reaction mixture obtained by using the wild-type GH1-2 was subject to ion exchange chromatography under the conditions described in Example (2-2), and the reaction product was analyzed, and observation of the hydrolysis product and the transglycosylation product was carried out over time. […]
as §3, with “Similarly, the” for “The”, “W363F mutant” for “wild-type”, “(2-2),” for “(2-2), and”, “time, and the result was compared with that observed when using the wild-type GH1-2 was observed.” for “time.”

[9] = Reaction of purified GH1-2 with high-concentration glucose, products by ion-exchange chromatography; assay type: biochemical; details: 1.4 g/L enzyme
Description: The purified GH1-2 was added to a 40% glucose aqueous solution at a concentration of 1.4 g/L, and reaction was carried out at 40° C. for 24 hours, to thereby obtain a sample. This sample was diluted 1000-fold with ion-exchanged water, and subjected to ion-exchange chromatography, to thereby analyze the reaction product. As a result, generation of beta-linked glucose oligosaccharides such as gentiobiose by GH1-2 was confirmed (FIG. 4).
The purified GH1-2 obtained in Example (2-1) was added to a 560 g/L glucose solution at a concentration of 1.4 g/L, to thereby obtain a reaction mixture. The reaction mixture was stirred so as to be uniform, and then left to stand at a room temperature for 52 hours. Then, the reaction mixture was heated at 95° C. for 10 minutes, to thereby obtain a saccharide solution containing gentiobiose. It was confirmed by the ion-exchange chromatography mentioned above that the saccharide solution contains 35.04 g/L gentiobiose.

With `O=C[C@H](O)[C@@H](O)[C@H](O[C@@H]1O[C@H](CO)[C@@H](O)[C@H](O)[C@H]1O)[C@H](O)CO` [cellobiose, reference compound] the “complementation of the decrease in the ability for secretory production of cellulase due to deletion of the gh1-2 gene (halo)” value (“complementation of the decrease” for short) ([1]; 1 mM in CMC minimal medium) was “scarcely able to complement the decrease in the ability for secretory production of cellulase”.

For gentiobiose, the “secretory production amount of HSA” value [2] was “greater in the case of feeding gentiobiose than in the case of feeding cellobiose”, the “secretory production of cellulase (width of degradation halo)” value [3] was “secretory production of cellulase is synergistically improved” and the “efficiency of cellulase production (filter paper degradation activity, yield per carbon source)” value [4] was “cellulase production with higher efficiency”. The “complementation of the decrease” value ([1]; 0.01 mM in CMC minimal medium) was “complemented the decrease in the ability for secretory production of cellulase more strongly than other beta-linked glucose oligosaccharides”, the “complementation of the decrease” value ([1]; 1 mM in CMC minimal medium) was “strongly complements the decrease in the ability for secretory production of cellulase” and the “secretory production of cellulase (diameter and width of degradation halo)” value [5] was “secretory production of cellulase is synergistically improved”.

B1: BGL3A: major extracellular-secretion type beta-glucosidase of T. cellulolyticus (SEQ ID NO: 38), tested as culture supernatant of strain F09pyr+ (protein, listed as Talaromyces cellulolyticus)
chain: MYSAFLLLLASATPIVSAQSASWSAAYSKATAALSKLSQNDKIGMVTGVGWGKGPCVGNTAAPSGISFPSLCIQDSPLGVRYANPVTAFPAGTNAGMTWDRTLMNQRGAALGAESKGLGVHVQLGPVAGPLGKIAQGGRGWEGFGTDPYLSGVAMIETISGMQSSGTQACAKHYIGNEQELNRESMSSNIDDRTLHELYLWPFADAVRANVASVMCSYNQINGTFSCENEESMTGILKTELGFPGYIMSDWDAQHTTVTSANSGLDMTMPGSDYSDTPSSVLWGQNLANAISSGQVAQSRLDDMVTRILAAWYLVGQDQGFPAVAFNSWTGGQASVNVTSNHNQVARAVARDSIVLLKNTNSTLPLNKPSSIAIIGTDAQTNPSGPNACTDRGCDTGTLAMGWGSGTCQFPYLTDPLTAIKTRAASDGTTITTSISDNGSAGASVAQSAEYAIVFINSDSGEGYITVEGVAGDRNNLDPWHSGNALVQSVAAVNKKTIVVIHSVGPVILETILAQPNVVAVVWAGIPGQESGSALTDILYGSTAPSGKLTYTIAKQASDYGTAVVSGSDNYPEGLFIDYRHFDKSNIEPRYEFGYGLSYTTFGYTNLAIDITVSTGPTTGQIVPGGPSDLFESVGTVTVQVANTGSVAGSEVAQLYIGLPSSAPSSPPKQLRGFDKLSLAAGASGTATFDLTRRDLSYWDVSKQKWVVPSGAFTVYVGASSRDIRLQGTFTPGGSSTTSTITSSKTSTTISTSVTTSSSTTAKTTTTSSTTSSAGPTQTPYGQCGGQGWTGPTVCSSGWTCKVTNQWYSQCLQ
With B1 the “generation of gentiobiose from cellobiose” value [6] was “can generate gentiobiose from cellobiose” and the “generation of gentiobiose from glucose” value [7] was “can generate gentiobiose from glucose in a concentration-dependent manner”.

B2: GH1-2: beta-glucosidase of T. cellulolyticus (SEQ ID NO: 23), His-tag at the C-terminus, expressed in E. coli and purified (protein, listed as Talaromyces cellulolyticus)
chain: MGSVTSTNGETPQSKLPADFVWGYATASYQIEGAYDEDGRGPSIWDTFSKTPGKVEDGTNGDVACDSYHRTHEDIAILKQYGAKLYRFSLSWPRIIPLGGRNDPINQKGIDFYSKFIDDLHAAGIEPFVTLYHWDLPDELFKRYGGPLNKDEFVADYANFARIAFQSFGHKVKHWVTFNEPWCSSVLGFNIGKHAPGRTSDRKKNPVGDGVREPWIAGHSLLVAHGTAVDIYRKEFKPTQGGEIGITLNGDWAEPWDPEDPEDIEACTRKLEFAISWFADPIYLGKYPDSVVKQIGDRLPPLTPDEVALIKGSNDFYGMNHYCANYIRHREGEADPDDTAGNLDHLFEDKFGNSIGPETNCEWLRPHPLGFRKLLKWLSDRYGYPKIYVTENGTSIKGENDLPLEELLNDEFRVQYYRDYVGAMADAATFDGVNVKKYMAWSLMDNFEWSEGYQSRFGVTYVDYKDNQKRIPKKSALVIGELFNKYISKE
modifications: C-terminal His-tag
With B2 the “activity on cellobiose (reaction products by TLC)” value [8] was “has not only a hydrolysis activity but also has a transglycosylation activity”, the “activity on glucose (generation of beta-linked glucose oligosaccharides such as gentiobiose)” value ([9]; 40% glucose aqueous solution, 40° C. for 24 hours) was “has a transglycosylation activity” and the “gentiobiose contained in the saccharide solution after reaction” value ([9]; 560 g/L glucose solution, room temperature for 52 hours) was 35.04 g/L.
